The source of these data is patent publication US20250144050A1, “AMINOTHIOL-CONJUGATES, COMPOSITIONS, AND METHODS OF USE THEREOF” (THE BURLINGTON HC RESEARCH GROUP, INC., priority 2021, published 2025).

Assay [1] concerns HCC38 cells. The assay is described as follows: CyQUANT cell viability assay, 48-hour exposure. The format is cell-based, human. How it is done:
After drug treatments, fluorescence readings from 96-well plates were obtained using the CyQUANT dye and compared to standard curves for each cell line to determine cell viability. […] Trypan blue exclusion was used to estimate cell numbers in a few pilot experiments and was thereafter applied to confirm cell death.
A series of experiments was conducted to assess the relative efficacy of 4SP65, 1LP65, and amifostine as single agents in the same human cancer cell lines. First, the effectiveness of 4SP65 was tested against 15 cancer cell lines derived from seven tissues. […] The effectiveness of 0 to ≤500 μM amifostine was tested in sets of cancer cell lines reported to have either medium, high, or no expression of alkaline phosphatase.
Trans. R Soc. Lond. […] Using cell numbers based on fluorescence measurements and standard curves [time zero, (Tz), control growth, (C), and test growth in the presence of drug at five or more concentration levels (Ti)], the percentage growth was calculated at each drug concentration level. The percentage of growth inhibition was calculated as follows:
The LC50/99 was calculated using Equation 2=−50 and Eq. 2=−99, respectively. […] For NHMECs, the relationships between drug exposure levels and fluorescence units were used to define dose-response metrics. The selectivity index (SI) values for individual drug treatments were calculated as IC50 levels in NHMECs divided by the IC50 values in cancer cell lines.

For assay [2], the system named is Normal human mammary epithelial cells (M99005). In words: Trypan Blue cell count, normal cells, 48 hours. It is filed as cell-based. Here is the method:
For comparison purposes, the growth inhibitory does of 4SP65 required to reduce the growth of normal human mammary epithelial cells by 50% was above 300 micromolar. The exact value has not been determined as of yet due to the fact that 4SP65 forms a hydrogel in medium when present at a concentration that exceeds 300 micromolar.
Normal human mammary epithelial cells were grown as described in Example 1, with the exception that the growth medium was as MEBM (purchased from American Type Tissue Culture Collection). When the cells had reach 50 to 60%, the growth medium was removed and medium supplemented with 0 to 300 microM 4SP65 was added to each well containing cells. At 48 hours, the cells were removed by trypsinization stained with Trypan Blue, and counted using a hemocytometer. […] The finding of a biphasic growth inhibition curve for WR-1065 has been reported previously (Calabro-Jones et al. “The limits to radioprotection of Chinese hamster V79 cells by WR-1065 under aerobic conditions.” Radiat Res. 149:550-559 (1998), which is hereby incorporated by reference in its entirety). Additional experiments now have been completed and are described infra).

The subject of assay [3] is LNCaP. In words: Trypan Blue cell count after 48 hour exposure. The format is cell-based, human. As to conditions: read-out: Average Growth Inhibitory Dose 50% [EC50], Prostate cancer cell line (LNCaP). How it is done: (§1) To evaluate the anticancer activity of 4-arm star polyethylene glycol conjugated to WR-1065 (4SP65), the anticancer efficacy of 4SP65 was determined in some of the same cell lines used by NIH/NCI, and the methodology used was the same as is used by the NCI to evaluate chemotherapeutic agents currently in use (O'Connor et al., “Characterization of the p53 Tumor Suppressor Pathway in Cell Lines of the National Cancer Institute Anticancer Drug Screen and Correlations With the Growth-Inhibitory Potency of 123 Anticancer Agents,” Cancer Res. 57 (19): 4285-300 (1997), which is hereby incorporated by reference in its entirety). Testing of 6 cancer types was completed: (i) breast cancer (MDA-MB-231 cells), (ii) lung cancer (A549), (iii) prostate cancer cell line (LNCaP), (iv) myelogenous leukemia (HL60 cells), (v) ovarian cancer (SK-OV-3), and (vi) prostate cancer (DU-145).
(§2) Each cell line was grown in medium as recommended by the ATCC or as presented in the literature for that cell line. All cells were cultured in a water jacket incubator at 36-37° C. and in the presence of 5% CO2. To ensure optimal growth and viability, all cells were grown on plates coated with FNC (In Vitrogen). Cells were refed with growth medium twice weekly until they had reached 60 to 70% confluence. At this point, the medium was replaced with growth medium supplemented with 4SP65 at doses ranging from 0 to up to 300 micromolar. Cells were allowed to grow in the presence of this supplemented medium for 48 hours, and then they were removed by trypsinization, stained with Trypan Blue and counted in a hemocytometer. Three to four replicates for each dose group per experiment were performed. The percentage cell death was determined by comparing the average number of surviving cells exposed to 4SP65 versus the average number of surviving sham exposed cells.

In assay [4] the test system is HL60 cells. The assay is described as follows: Trypan Blue cell count after 48 hour exposure. It is filed as cell-based, human. Conditions: read-out: Average Growth Inhibitory Dose 50% [EC50], Myelogenous Leukemia (HL60). How it is done: as §1, §2
For assay [5], the system named is H1437 NSCLC cells. The assay is described as follows: Alamar Blue (resazurin) cellular reducing capacity. It is filed as cell-based, human. As to conditions: until cell numbers reduced to approximately 50% of controls. From the text: The aminothiol-conjugates of the present disclosure (e.g., 4SP65 and 1LP65) are disulfides that require reduction by glutathione or thioredoxin for the two constituent molecules (WR1065 and PEG-SH scaffold) to be released. […] After an aminothiol-conjugate of the present disclosure (e.g., 4SP65 and 1LP65) enters the cytoplasm, either glutathione or thioredoxin reduces the BRG disulfide bond (Rxn #1) to yield reduced WR1065 and PEG-SH scaffold. In normal cells with a reducing cytosolic redox balance, evidence of formation of free radical intermediates during this reaction has not been reported, but formation of […] has been reported (Nagy, P., “Kinetics and Mechanisms of Thiol-Disulfide Exchange Covering Direct Substitution and Thiol Oxidation-Mediated Pathways,” Antioxid Redox Signal 18 (13): 1623-1641 (2013), which is hereby incorporated by reference in its entirety). Conversely, in cancer cells where the cellular environment is shifted towards oxidizing conditions, there is evidence that reactive species such as thiyl free radicals can be formed (Nagy, P., “Kinetics and Mechanisms of Thiol-Disulfide Exchange Covering Direct Substitution and Thiol Oxidation-Mediated Pathways,” Antioxid. Redox Signal 18 (13): 1623-1641 (2013), which is hereby incorporated by reference in its entirety), which can have adverse effects in neoplastic cells. […]
For orientation: Resazurin is reduced to fluorescent resorufin, in cell work by metabolically active cells.

pEC50: −log10 of the molar value.

Consider 4-star PEG-S-S-WR1065 [4SP65], for which the “Relative potency compared to amifostine at IC50” value in assay [1] (HCC38 cells) is listed as 67 fold. The substance also yielded a selectivity index in assay [1] (IC50 of 76 in most sensitive NHMEC strain / IC50 in HCC38) of more than 19. For the same substance, the “inhibition of cell growth” value in assay [2] (0 to 300 microM except 100 microM, 48 hours) is recorded as “No inhibition of cell growth was observed”. Besides, the pEC50 in assay [2] (normal human mammary epithelial cells, read-out: growth inhibitory dose required to reduce growth by 50%) was less than 3.52; in assay [3], 5.02; in assay [4], 5.52. Moreover, the “cellular reducing capacity relative to control cells” value in assay [5] is reported as approximately 100%.
